The source of these data is PubChem BioAssay (NCI).

Among the test systems are ACHN renal; HOP-92 NSCLC; IGROV1 ovarian; LOX IMVI melanoma; NCI-H226 lung; OVCAR-4 ovarian; SN12C renal; T-47D breast; U251 CNS; UO-31 renal.
Holding throughout (experiment): inhibition of tumour cell growth, NCI panel, 48 h

Where “and” joins values, the source holds several entries; their conditions need not be identical. Equal entries are not always repeated.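 Exposure lasted 48 hours, with cells grown in 96-well plates and compounds tested at five concentrations. GI50 marks 50% less growth. TGI is the concentration that stops growth completely.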

For the compound `Fc1ccc(-c2nn3ncccc3c2-c2ccnc(Nc3ccc4c(c3)OCCO4)n2)cc1`, the GI50 is 1.16 µM in the test on ACHN renal; 2610 nM in the test with HOP-92 NSCLC; 0.595 µM in the test on IGROV1 ovarian; 3380 nM with LOX IMVI melanoma; 5.76 µM in the test with NCI-H226 lung; 6.89 µM with OVCAR-4 ovarian. The GI50 is 4.68 µM in the test with SN12C renal, 3.95 µM in the test with T-47D breast, 7720 nM in the test with U251 CNS and 581 nM in the test with UO-31 renal. Besides, the TGI is more than 25 µM in the test on ACHN renal; 18.8 µM with HOP-92 NSCLC; more than 11.5 µM with IGROV1 ovarian; 13.7 µM with LOX IMVI melanoma; more than 18.9 µM with NCI-H226 lung; more than 25 µM in the test with OVCAR-4 ovarian. Moreover, the TGI in the test with SN12C renal was more than 25 µM; in the test on T-47D breast, 17.9 µM; with U251 CNS, more than 25 µM; in the test with UO-31 renal it was more than 25 µM.
Take `CON(C)C(=O)N1N=C(c2cc(F)ccc2F)SC1(CCCN)c1ccccc1` (centres undefined): the GI50 was 7.79 µM and 4.91 µM with ACHN renal; 6.28 µM and 4.85 µM with IGROV1 ovarian; 24 nM and < 10 nM with LOX IMVI melanoma; 12 µM and 12.5 µM in the test on NCI-H226 lung; 4.27 µM and 3.37 µM in the test on OVCAR-4 ovarian; less than 0.01 µM with SN12C renal. The GI50 is 0.0279 µM and < 0.01 µM with T-47D breast; less than 10 nM in the test on U251 CNS; 3370 nM and 2210 nM with UO-31 renal. Besides, the TGI with ACHN renal was 22.5 µM and 21.8 µM; in the test on HOP-92 NSCLC it was 10.2 µM and 15 µM; in the test with IGROV1 ovarian it was 32.2 µM and 27.5 µM; in the test with LOX IMVI melanoma it was 17.5 µM and 16.4 µM; with NCI-H226 lung, 27.3 µM and 28.3 µM; in the test with OVCAR-4 ovarian, 24.9 µM and 24.8 µM. Besides, the TGI in the test on SN12C renal is 16 µM and 16.1 µM; in the test with T-47D breast, 18.7 µM and 18.2 µM; in the test on U251 CNS it was 13.4 µM and 13.7 µM; in the test with UO-31 renal it was 21.8 µM and 20.5 µM.
With `COc1cc2c(c(OC)c1OC)C(=O)[C@@H]1c3ccc([N+](=O)[O-])cc3C(=O)N(CCCBr)[C@H]21`, the GI50 with ACHN renal is 15.2 µM; in the test with HOP-92 NSCLC it was 16100 nM; in the test on IGROV1 ovarian, 3.41 µM; in the test with LOX IMVI melanoma, 19500 nM; in the test with NCI-H226 lung, 13.6 µM; in the test with OVCAR-4 ovarian, 17.1 µM. Moreover, the GI50 was 7.67 µM in the test with SN12C renal, 7.88 µM in the test with T-47D breast, 23300 nM in the test on U251 CNS and 4490 nM with UO-31 renal. Besides, the TGI is 58.5 µM in the test with ACHN renal; 78.6 µM in the test with HOP-92 NSCLC; 21.3 µM in the test on IGROV1 ovarian; more than 100 µM in the test with LOX IMVI melanoma; 49.7 µM in the test with NCI-H226 lung; 64.2 µM with OVCAR-4 ovarian. The TGI in the test with SN12C renal is 29.9 µM; in the test on T-47D breast, more than 100 µM; in the test on U251 CNS, more than 100 µM; in the test on UO-31 renal, 25.7 µM.
As to `CC[C@H](C)[C@H]1O[C@]2(C=C[C@@H]1C)C[C@@H]1C[C@@H](C/C=C(\C)[C@@H](O[C@H]3C[C@H](OC)[C@@H](O[C@H]4C[C@H](OC)[C@@H](NC)[C@H](C)O4)[C@H](C)O3)[C@@H](C)/C=C/C=C3\CO[C@@H]4[C@H](O)C(C)=C[C@@H](C(=O)O1)[C@]34O)O2`, the GI50 in the test with ACHN renal was 2.73 µM; in the test with HOP-92 NSCLC, 2120 nM; in the test with IGROV1 ovarian, 3.06 µM; in the test on LOX IMVI melanoma, 1680 nM; with NCI-H226 lung it was 4.26 µM; with OVCAR-4 ovarian it was 3.3 µM. Besides, the GI50 was 3.04 µM in the test on SN12C renal, 4.4 µM with T-47D breast, 1910 nM with U251 CNS and 1690 nM in the test with UO-31 renal. The TGI with ACHN renal was found to be 10.8 µM; in the test with HOP-92 NSCLC, 9.67 µM; in the test on IGROV1 ovarian it was 12 µM; in the test on LOX IMVI melanoma, 3.13 µM; with NCI-H226 lung it was 16 µM; in the test with OVCAR-4 ovarian, 13.4 µM. The TGI in the test with SN12C renal came out at 11.3 µM; with T-47D breast, 16.8 µM; with U251 CNS, 4.07 µM; with UO-31 renal, 4.13 µM.
On to `O=C(/C=C\n1cnc(-c2cc(C(F)(F)F)cc(C(F)(F)F)c2)n1)NNc1cnccn1`, for which the GI50 in the test with ACHN renal is 0.113 µM; with HOP-92 NSCLC it was 94 nM; in the test with IGROV1 ovarian, 0.223 µM; in the test with LOX IMVI melanoma, 44.6 nM; in the test with NCI-H226 lung it was 0.0384 µM; in the test on OVCAR-4 ovarian, 0.0364 µM. The GI50 in the test with SN12C renal is 0.356 µM; in the test with T-47D breast, 0.143 µM; in the test on U251 CNS, 51.1 nM; in the test on UO-31 renal it was 120 nM. The TGI stood at 13 µM in the test on ACHN renal; 9.21 µM in the test with HOP-92 NSCLC; 14.8 µM in the test on IGROV1 ovarian; 1.5 µM in the test with LOX IMVI melanoma; 3.05 µM in the test with NCI-H226 lung; 14 µM with OVCAR-4 ovarian. The TGI in the test on SN12C renal is 15.4 µM; in the test with T-47D breast, 15.7 µM; in the test with U251 CNS, 12.4 µM; in the test on UO-31 renal, 12.8 µM.
